Experimental data reported in patent US20120270819A1, “USE OF COMPOUNDS WITH SGLT-1/SGLT-2 INHIBITOR ACTIVITY FOR PRODUCING MEDICAMENTS FOR TREATMENT OF BONE DISEASE” (SANOFI, priority 2009, published 2012).

How the values were obtained:
[1] = test system: female Sprague-Dawley mature and young adult rats; experiment: Biomechanical testing: right femur 3-point bending; assay type: in vivo, rat; details: ex vivo; for Femur 3-point bending AUC / Femur 3-point bending Modulus / Femur 3-point bending Peak Load / Femur 3-point bending Stiffness / Femur 3-point bending Toughness / Femur 3-point bending Ultimate Stress: mean
Procedure: Biomechanical testing was performed using an 858 Mini Bionix Servohydraulic Test System, Model 242.03. All data was collected using TestWorks® version 3.8A for TestStar™ software, version 4.0C.
At necropsy, all specimens were cleaned of excess tissue (not scraped) and individually wrapped in gauze soaked with saline, covered with plastic film and placed in an appropriately labelled plastic bag. Bone samples were retained frozen (ca −20° C.) until subjected to the following biomechanical evaluations:
For 3-point bending, the right femur was cleaned of soft tissue, especially at the diaphysis in the area of the span.
The right femur was tested to failure in three-point bending to determine the material properties of femoral cortical bone. The marked point on the anterior side served as the upper loading point for each femur and the actuator was set at a rate of 1 mm/sec until failure occurred. Load and displacement data were collected. Peak load was determined from the resulting load versus displacement curve and converted to ultimate stress using the radius, cross-sectional moment of inertia and the span. The work to failure was determined from the area under the curve (AUC) and toughness was calculated. Approximate midspan values for stiffness were recorded (defined as the slope of the linear/elastic region of the load versus displacement curve) and modulus was calculated using the moment of inertia obtained from the pQCT data.

[2] = test system: female Sprague-Dawley mature and young adult rats; experiment: Animal study of bone quality, daily oral gavage for a minimum of 28 days (overall findings, histopathology); assay type: in vivo, rat
Procedure: The following were evaluated: clinical signs (at least weekly), body weight (weekly), food consumption (weekly), hormones (Days 13 and 27), serum and urinary biochemical markers of bone turnover (Days 13 and 27), serum chemistry (at necropsy), bone densitometry by dual energy X-ray absorptiometry (DXA) and peripheral quantitative computed tomography (pQCT) (Week 2 and 4, as well as ex vivo), macroscopic observations at necropsy, organ weights, histopathology, biomechanical strength testing and femoral length measurements.

`COc1ccc(Cc2c(OC3OC(CO)C(F)C(O)C3O)n[nH]c2C(F)(F)F)cc1` (centres unmarked) [Example 5 of formula II] was tested, and the “Femur 3-point bending AUC, percent difference from Vehicle Control” value ([1]; Mature Adults, 10 mg/kg/day) was 13.4%, the “Femur 3-point bending Modulus, percent difference from Vehicle Control” value ([1]; Mature Adults, 10 mg/kg/day) was −0.2% and the “Femur 3-point bending Peak Load, percent difference from Vehicle Control” value ([1]; Mature Adults, 10 mg/kg/day) was 10.1%. The “Femur 3-point bending Stiffness, percent difference from Vehicle Control” value ([1]; Mature Adults, 10 mg/kg/day) was 1.3%, the “Femur 3-point bending Toughness, percent difference from Vehicle Control” value ([1]; Mature Adults, 10 mg/kg/day) was 10.5% and the “Femur 3-point bending Ultimate Stress, percent difference from Vehicle Control” value ([1]; Mature Adults, 10 mg/kg/day) was 6.1%. The “Femur 3-point bending AUC” value ([1]; Mature Adults, 10 mg/kg/day) was 64.1 N-mm, the “Femur 3-point bending Modulus” value ([1]; Mature Adults, 10 mg/kg/day) was 6137.7 MPa and the “Femur 3-point bending Peak Load” value ([1]; Mature Adults, 10 mg/kg/day) was 149.8 N. For the same molecule, the “Femur 3-point bending Stiffness” value ([1]; Mature Adults, 10 mg/kg/day) was 410.2 N/mm, the “Femur 3-point bending Toughness” value ([1]; Mature Adults, 10 mg/kg/day) was 7.8 MPa and the “Femur 3-point bending Ultimate Stress” value ([1]; Mature Adults, 10 mg/kg/day) was 200.5 MPa. The “Femur 3-point bending AUC, percent difference from Vehicle Control” value ([1]; Mature Adults, 50 mg/kg/day) was 8.7%, the “Femur 3-point bending Modulus, percent difference from Vehicle Control” value ([1]; Mature Adults, 50 mg/kg/day) was 1.2% and the “Femur 3-point bending Peak Load, percent difference from Vehicle Control” value ([1]; Mature Adults, 50 mg/kg/day) was 4.5%. The “Femur 3-point bending Stiffness, percent difference from Vehicle Control” value ([1]; Mature Adults, 50 mg/kg/day) was −0.9%, the “Femur 3-point bending Toughness, percent difference from Vehicle Control” value ([1]; Mature Adults, 50 mg/kg/day) was 6.6% and the “Femur 3-point bending Ultimate Stress, percent difference from Vehicle Control” value ([1]; Mature Adults, 50 mg/kg/day) was 3.4%. For the same molecule, the “Femur 3-point bending AUC” value ([1]; Mature Adults, 50 mg/kg/day) was 61.4 N-mm, the “Femur 3-point bending Modulus” value ([1]; Mature Adults, 50 mg/kg/day) was 6222.5 MPa and the “Femur 3-point bending Peak Load” value ([1]; Mature Adults, 50 mg/kg/day) was 142.1 N. For the same molecule, the “Femur 3-point bending Stiffness” value ([1]; Mature Adults, 50 mg/kg/day) was 401.4 N/mm, the “Femur 3-point bending Toughness” value ([1]; Mature Adults, 50 mg/kg/day) was 7.5 MPa and the “Femur 3-point bending Ultimate Stress” value ([1]; Mature Adults, 50 mg/kg/day) was 195.4 MPa. For the same molecule, the “Femur 3-point bending AUC, percent difference from Vehicle Control” value ([1]; Young Adults, 10 mg/kg/day) was 4.1%, the “Femur 3-point bending Modulus, percent difference from Vehicle Control” value ([1]; Young Adults, 10 mg/kg/day) was 2.1% and the “Femur 3-point bending Peak Load, percent difference from Vehicle Control” value ([1]; Young Adults, 10 mg/kg/day) was 0.9%. For the same molecule, the “Femur 3-point bending Stiffness, percent difference from Vehicle Control” value ([1]; Young Adults, 10 mg/kg/day) was −0.4%, the “Femur 3-point bending Toughness, percent difference from Vehicle Control” value ([1]; Young Adults, 10 mg/kg/day) was 2.5% and the “Femur 3-point bending Ultimate Stress, percent difference from Vehicle Control” value ([1]; Young Adults, 10 mg/kg/day) was 1.3%. The “Femur 3-point bending AUC” value ([1]; Young Adults, 10 mg/kg/day) was 63.7 N-mm, the “Femur 3-point bending Modulus” value ([1]; Young Adults, 10 mg/kg/day) was 5154.1 MPa and the “Femur 3-point bending Peak Load” value ([1]; Young Adults, 10 mg/kg/day) was 97.9 N. For the same molecule, the “Femur 3-point bending Stiffness” value ([1]; Young Adults, 10 mg/kg/day) was 277.3 N/mm, the “Femur 3-point bending Toughness” value ([1]; Young Adults, 10 mg/kg/day) was 8.7 MPa and the “Femur 3-point bending Ultimate Stress” value ([1]; Young Adults, 10 mg/kg/day) was 155.8 MPa. The “Femur 3-point bending AUC, percent difference from Vehicle Control” value ([1]; Young Adults, 50 mg/kg/day) was −19.9%, the “Femur 3-point bending Modulus, percent difference from Vehicle Control” value ([1]; Young Adults, 50 mg/kg/day) was 4.0% and the “Femur 3-point bending Peak Load, percent difference from Vehicle Control” value ([1]; Young Adults, 50 mg/kg/day) was −3.0%. The “Femur 3-point bending Stiffness, percent difference from Vehicle Control” value ([1]; Young Adults, 50 mg/kg/day) was 2.0%, the “Femur 3-point bending Toughness, percent difference from Vehicle Control” value ([1]; Young Adults, 50 mg/kg/day) was −19.2% and the “Femur 3-point bending Ultimate Stress, percent difference from Vehicle Control” value ([1]; Young Adults, 50 mg/kg/day) was −2.3%. The “Femur 3-point bending AUC” value ([1]; Young Adults, 50 mg/kg/day) was 49.0 N-mm, the “Femur 3-point bending Modulus” value ([1]; Young Adults, 50 mg/kg/day) was 5249.6 MPa and the “Femur 3-point bending Peak Load” value ([1]; Young Adults, 50 mg/kg/day) was 94.1 N. The “Femur 3-point bending Stiffness” value ([1]; Young Adults, 50 mg/kg/day) was 283.9 N/mm, the “Femur 3-point bending Toughness” value ([1]; Young Adults, 50 mg/kg/day) was 6.8 MPa and the “Femur 3-point bending Ultimate Stress” value ([1]; Young Adults, 50 mg/kg/day) was 150.2 MPa. The “effects on bone mass and bone strength associated parameters” value ([2]; both dose levels (10, 50 mg/kg/day), both rat populations) was “positive effects” and the “trabecular bone noted histopathologically” value ([2]; young only) was “increase in trabecular bone”.
